# Results from PubChem BioAssay AID1963848 (Molecular Pharmacology Branch, DTP, NCI, 2024).
# System: 379773-124-R-J2-PDC spheroid viability
# Test: Anticancer human tumor 379773-124-R-J2-PDC patient-derived endometrial carcinoma cell line growth inhibition [POLQ]
# Settings: spheroids with HUVEC and MSC; for IC50: curve of first compound; for viability, T/C: stronger effect = lower value
# Outline: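 PDC + HUVEC + MSC complex spheroids; POLQ inhibitors ± partner drugs; top conc. at/near clinical Cmax, else 10 microM (SN-38 1 microM), half-log dilutions; 37 degrees C, 5% CO2.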
# [1] = second compound 0.0316 µM, first compound 0.00316 µM
# [2] = second compound 0.0316 µM, first compound 0.01 µM
# [3] = second compound 0.0316 µM, first compound 0.0316 µM
# [4] = second compound 0.0316 µM, first compound 0.1 µM
# [5] = second compound 0.1 µM, first compound 0.00316 µM
# [6] = second compound 0.1 µM, first compound 0.01 µM
# [7] = second compound 0.1 µM, first compound 0.0316 µM
# [8] = second compound 0.1 µM, first compound 0.1 µM
# [9] = second compound 0.316 µM, first compound 0.00316 µM
# [10] = second compound 0.316 µM, first compound 0.01 µM
# [11] = second compound 0.316 µM, first compound 0.0316 µM
# [12] = second compound 0.316 µM, first compound 0.1 µM
# [13] = second compound 1 µM, first compound 0.00316 µM
# [14] = second compound 1 µM, first compound 0.01 µM
# [15] = second compound 1 µM, first compound 0.0316 µM
# [16] = second compound 1 µM, first compound 0.1 µM
# [17] = second compound 3.16 µM, first compound 0.00316 µM
# [18] = second compound 3.16 µM, first compound 0.01 µM
# [19] = second compound 3.16 µM, first compound 0.0316 µM
# [20] = second compound 3.16 µM, first compound 0.1 µM
# [21] = second compound 10 µM, first compound 0.00316 µM
# [22] = second compound 10 µM, first compound 0.01 µM
# [23] = second compound 10 µM, first compound 0.0316 µM
# [24] = second compound 10 µM, first compound 0.1 µM
# 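Further: spheroids exposed to drugs for seven days before readout.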
# 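Wherever viability, T/C is given: percent viability relative to DMSO vehicle control taken as 100%.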
smiles,measurement,setting,value
CC(=O)O[C@H]1C(=O)[C@@]2(C)[C@H]([C@H](OC(=O)c3ccccc3)[C@]3(O)C[C@H](OC(=O)[C@H](O)[C@@H](NC(=O)c4ccccc4)c4ccccc4)C(C)=C1C3(C)C)[C@]1(OC(C)=O)CO[C@@H]1C[C@@H]2O + Nc1ccc(C#CCN(C(=O)Cc2ncc(C(F)(F)F)cc2C(F)(F)F)c2ccc(F)cc2)nn1,IC50,second compound 0.0316 µM,< 9.49 nM
same,IC50,second compound 0.1 µM,< 9.49 nM
same,IC50,second compound 0.316 µM,< 9.49 nM
same,IC50,second compound 1 µM,< 9.49 nM
same,IC50,second compound 3.16 µM,< 9.49 nM
same,IC50,second compound 10 µM,< 9.49 nM
same,"viability, T/C","second compound 0.0316 µM, first compound 0.00949 µM",22.9%
same,"viability, T/C","second compound 0.0316 µM, first compound 0.03 µM",8.34%
same,"viability, T/C","second compound 0.0316 µM, first compound 0.0949 µM",8.59%
same,"viability, T/C","second compound 0.0316 µM, first compound 0.3 µM",12%
same,"viability, T/C","second compound 0.0316 µM, first compound 0.949 µM",7.39%
same,"viability, T/C","second compound 0.0316 µM, first compound 3 µM",10.1%
same,"viability, T/C","second compound 0.1 µM, first compound 0.00949 µM",19%
same,"viability, T/C","second compound 0.1 µM, first compound 0.03 µM",11.5%
same,"viability, T/C","second compound 0.1 µM, first compound 0.0949 µM",8.46%
same,"viability, T/C","second compound 0.1 µM, first compound 0.3 µM",9.83%
same,"viability, T/C","second compound 0.1 µM, first compound 0.949 µM",9.69%
same,"viability, T/C","second compound 0.1 µM, first compound 3 µM",8.71%
same,"viability, T/C","second compound 0.316 µM, first compound 0.00949 µM",23.7%
same,"viability, T/C","second compound 0.316 µM, first compound 0.03 µM",9.89%
same,"viability, T/C","second compound 0.316 µM, first compound 0.0949 µM",10.2%
same,"viability, T/C","second compound 0.316 µM, first compound 0.3 µM",12.1%
same,"viability, T/C","second compound 0.316 µM, first compound 0.949 µM",10.1%
same,"viability, T/C","second compound 0.316 µM, first compound 3 µM",9.75%
same,"viability, T/C","second compound 1 µM, first compound 0.00949 µM",28.3%
same,"viability, T/C","second compound 1 µM, first compound 0.03 µM",10.3%
same,"viability, T/C","second compound 1 µM, first compound 0.0949 µM",10.1%
same,"viability, T/C","second compound 1 µM, first compound 0.3 µM",9.22%
same,"viability, T/C","second compound 1 µM, first compound 0.949 µM",10.3%
same,"viability, T/C","second compound 1 µM, first compound 3 µM",8.87%
same,"viability, T/C","second compound 3.16 µM, first compound 0.00949 µM",23.4%
same,"viability, T/C","second compound 3.16 µM, first compound 0.03 µM",9.86%
same,"viability, T/C","second compound 3.16 µM, first compound 0.0949 µM",9.86%
same,"viability, T/C","second compound 3.16 µM, first compound 0.3 µM",10.8%
same,"viability, T/C","second compound 3.16 µM, first compound 0.949 µM",11%
same,"viability, T/C","second compound 3.16 µM, first compound 3 µM",9.15%
same,"viability, T/C","second compound 10 µM, first compound 0.00949 µM",25.1%
same,"viability, T/C","second compound 10 µM, first compound 0.03 µM",10.9%
same,"viability, T/C","second compound 10 µM, first compound 0.0949 µM",9.07%
same,"viability, T/C","second compound 10 µM, first compound 0.3 µM",10.1%
same,"viability, T/C","second compound 10 µM, first compound 0.949 µM",8.38%
same,"viability, T/C","second compound 10 µM, first compound 3 µM",8.52%
Cn1ncnc1[C@H]1c2n[nH]c(=O)c3cc(F)cc(c23)N[C@@H]1c1ccc(F)cc1 + Cc1cccc(N(C)C(=O)C2C(O)CCN2c2nc(C)cc(C(F)(F)F)c2C#N)c1,IC50,second compound 0.0316 µM,> 100 nM
same,IC50,second compound 0.1 µM,> 100 nM
same,IC50,second compound 0.316 µM,> 100 nM
same,IC50,second compound 1 µM,> 100 nM
same,IC50,second compound 3.16 µM,90.1 nM
same,IC50,second compound 10 µM,> 100 nM
same,"viability, T/C","second compound 0.0316 µM, first compound 0.000316 µM",79.1%
same,"viability, T/C","second compound 0.0316 µM, first compound 0.001 µM",78.9%
same,"viability, T/C",[1],74.5%
same,"viability, T/C",[2],89.8%
same,"viability, T/C",[3],67.8%
same,"viability, T/C",[4],60.8%
same,"viability, T/C","second compound 0.1 µM, first compound 0.000316 µM",86.3%
same,"viability, T/C","second compound 0.1 µM, first compound 0.001 µM",77.2%
same,"viability, T/C",[5],90.2%
same,"viability, T/C",[6],82.8%
same,"viability, T/C",[7],61.5%
same,"viability, T/C",[8],55.6%
same,"viability, T/C","second compound 0.316 µM, first compound 0.000316 µM",85.7%
same,"viability, T/C","second compound 0.316 µM, first compound 0.001 µM",79.7%
same,"viability, T/C",[9],74.2%
same,"viability, T/C",[10],73.6%
same,"viability, T/C",[11],82.8%
same,"viability, T/C",[12],55.5%
same,"viability, T/C","second compound 1 µM, first compound 0.000316 µM",76.8%
same,"viability, T/C","second compound 1 µM, first compound 0.001 µM",87.3%
same,"viability, T/C",[13],75.8%
same,"viability, T/C",[14],76.7%
same,"viability, T/C",[15],65.6%
same,"viability, T/C",[16],60.6%
same,"viability, T/C","second compound 3.16 µM, first compound 0.000316 µM",74.9%
same,"viability, T/C","second compound 3.16 µM, first compound 0.001 µM",83.3%
same,"viability, T/C",[17],67.6%
same,"viability, T/C",[18],84.2%
same,"viability, T/C",[19],70.2%
same,"viability, T/C",[20],47.8%
same,"viability, T/C","second compound 10 µM, first compound 0.000316 µM",76.8%
same,"viability, T/C","second compound 10 µM, first compound 0.001 µM",78%
same,"viability, T/C",[21],74.7%
same,"viability, T/C",[22],70.5%
same,"viability, T/C",[23],62.7%
same,"viability, T/C",[24],54.1%
CCc1c2c(nc3ccc(O)cc13)-c1cc3c(c(=O)n1C2)COC(=O)[C@]3(O)CC + Cc1cccc(N(C)C(=O)C2C(O)CCN2c2nc(C)cc(C(F)(F)F)c2C#N)c1,IC50,second compound 0.0316 µM,< 3.16 nM
same,IC50,second compound 0.1 µM,< 3.16 nM
same,IC50,second compound 0.316 µM,< 3.16 nM
same,IC50,second compound 1 µM,< 3.16 nM
same,IC50,second compound 3.16 µM,< 3.16 nM
same,IC50,second compound 10 µM,< 3.16 nM
same,"viability, T/C",[1],42.3%
same,"viability, T/C",[2],11.2%
same,"viability, T/C",[3],7.22%
same,"viability, T/C",[4],2.98%
same,"viability, T/C","second compound 0.0316 µM, first compound 0.316 µM",1.21%
same,"viability, T/C","second compound 0.0316 µM, first compound 1 µM",0.39%
same,"viability, T/C",[5],42.5%
same,"viability, T/C",[6],11.1%
same,"viability, T/C",[7],6.54%
same,"viability, T/C",[8],3.61%
same,"viability, T/C","second compound 0.1 µM, first compound 0.316 µM",2%
same,"viability, T/C","second compound 0.1 µM, first compound 1 µM",1.94%
same,"viability, T/C",[9],50%
same,"viability, T/C",[10],10.5%
same,"viability, T/C",[11],6.39%
same,"viability, T/C",[12],2.26%
same,"viability, T/C","second compound 0.316 µM, first compound 0.316 µM",1.38%
same,"viability, T/C","second compound 0.316 µM, first compound 1 µM",0.58%
same,"viability, T/C",[13],41.5%
same,"viability, T/C",[14],12.6%
same,"viability, T/C",[15],7.38%
same,"viability, T/C",[16],2.95%
same,"viability, T/C","second compound 1 µM, first compound 0.316 µM",2.13%
same,"viability, T/C","second compound 1 µM, first compound 1 µM",0.49%
same,"viability, T/C",[17],43.7%
same,"viability, T/C",[18],14.4%
same,"viability, T/C",[19],7.52%
same,"viability, T/C",[20],3.81%
same,"viability, T/C","second compound 3.16 µM, first compound 0.316 µM",1.74%
same,"viability, T/C","second compound 3.16 µM, first compound 1 µM",0.63%
same,"viability, T/C",[21],30.8%
same,"viability, T/C",[22],13.9%
same,"viability, T/C",[23],7.18%
same,"viability, T/C",[24],3.13%
same,"viability, T/C","second compound 10 µM, first compound 0.316 µM",2.07%
same,"viability, T/C","second compound 10 µM, first compound 1 µM",1.28%
